Read-outs that look alike come from different tables or passages of the source.
Tests used:
Type in all cases: in vitro ADME
CYP1A = biological target: T1, CYP1A (Homo sapiens, UniProt P05177); experiment: CYP inhibition in human liver microsomes, CYP1A; settings: probe phenacetin, substrate phenacetin, read-out: CYP1A Inh %
T1 construct: incubated with human liver microsomes; from tissue; host or cells: human liver microsomes

CYP3A4&5 = experiment: CYP inhibition in human liver microsomes, CYP3A4&5 testosterone; settings: probe testosterone, substrate testosterone, read-out: CYP3A4&5 testosterone Inh %
CYP2C9 = CYP2C9 (Homo sapiens, UniProt P11712); experiment: CYP inhibition in human liver microsomes, CYP2C9; design: incubated with human liver microsomes; from tissue; host or cells: human liver microsomes; settings: probe diclofenac, substrate diclofenac, read-out: CYP2C9 Inh %
CYP2C9, sequence (P11712 whole entry): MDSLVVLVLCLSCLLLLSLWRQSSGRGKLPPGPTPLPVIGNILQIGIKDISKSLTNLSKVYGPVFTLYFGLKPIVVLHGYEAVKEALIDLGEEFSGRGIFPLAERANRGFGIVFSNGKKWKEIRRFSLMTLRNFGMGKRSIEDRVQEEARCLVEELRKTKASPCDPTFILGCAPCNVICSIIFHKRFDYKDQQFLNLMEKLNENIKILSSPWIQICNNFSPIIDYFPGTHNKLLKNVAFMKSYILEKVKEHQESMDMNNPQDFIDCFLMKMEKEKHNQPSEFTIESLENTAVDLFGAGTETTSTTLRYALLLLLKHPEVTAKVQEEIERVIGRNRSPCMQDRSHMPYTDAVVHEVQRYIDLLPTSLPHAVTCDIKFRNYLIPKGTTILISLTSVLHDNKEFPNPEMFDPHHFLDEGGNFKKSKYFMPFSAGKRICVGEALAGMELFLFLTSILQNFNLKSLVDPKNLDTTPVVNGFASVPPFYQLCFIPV

CYP2D6 = biological target: T2, CYP2D6 (Homo sapiens, UniProt P10635); experiment: CYP inhibition in human liver microsomes, CYP2D6; settings: probe dextromethorphan, substrate dextromethorphan, read-out: CYP2D6 Inh %
T2 construct: incubated with human liver microsomes; from tissue; host or cells: human liver microsomes
T2 sequence (P10635 whole entry): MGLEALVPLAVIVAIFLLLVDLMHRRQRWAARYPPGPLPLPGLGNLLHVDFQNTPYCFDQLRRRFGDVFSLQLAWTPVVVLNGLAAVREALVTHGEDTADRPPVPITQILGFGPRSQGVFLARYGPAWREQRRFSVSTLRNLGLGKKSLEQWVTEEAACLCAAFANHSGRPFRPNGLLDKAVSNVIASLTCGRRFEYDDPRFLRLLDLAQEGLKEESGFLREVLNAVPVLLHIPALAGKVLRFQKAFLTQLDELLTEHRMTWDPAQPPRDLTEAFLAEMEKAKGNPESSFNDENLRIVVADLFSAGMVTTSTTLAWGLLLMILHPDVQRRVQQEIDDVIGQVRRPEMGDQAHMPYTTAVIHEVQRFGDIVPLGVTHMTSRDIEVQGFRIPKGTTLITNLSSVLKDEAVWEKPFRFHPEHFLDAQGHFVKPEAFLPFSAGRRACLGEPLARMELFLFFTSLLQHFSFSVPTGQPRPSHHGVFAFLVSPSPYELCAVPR

CYP2B6 = biological target: T3, CYP2B6 (Homo sapiens, UniProt P20813); experiment: CYP inhibition in human liver microsomes, CYP2B6; settings: probe bupropion, substrate bupropion, read-out: CYP2B6 Inh %
T3 construct: incubated with human liver microsomes; from tissue; host or cells: human liver microsomes
T3 sequence (P20813 1-491): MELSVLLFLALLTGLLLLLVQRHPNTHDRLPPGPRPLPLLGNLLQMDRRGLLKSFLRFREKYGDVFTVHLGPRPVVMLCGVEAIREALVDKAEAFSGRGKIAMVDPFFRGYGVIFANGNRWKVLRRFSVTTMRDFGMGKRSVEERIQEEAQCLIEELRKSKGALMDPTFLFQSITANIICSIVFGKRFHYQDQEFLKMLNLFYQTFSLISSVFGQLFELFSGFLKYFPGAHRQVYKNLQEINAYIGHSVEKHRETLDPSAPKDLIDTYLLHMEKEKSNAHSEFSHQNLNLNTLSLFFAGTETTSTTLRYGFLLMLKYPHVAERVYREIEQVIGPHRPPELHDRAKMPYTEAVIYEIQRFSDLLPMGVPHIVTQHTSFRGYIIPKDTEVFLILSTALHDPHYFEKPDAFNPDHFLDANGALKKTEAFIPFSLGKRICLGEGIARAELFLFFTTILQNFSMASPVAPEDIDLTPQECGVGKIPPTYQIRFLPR

CYP2C19 = biological target: T4, CYP2C19 (Homo sapiens, UniProt P33261); experiment: CYP inhibition in human liver microsomes, CYP2C19; settings: probe omeprazole, substrate omeprazole, read-out: CYP2C19 Inh %
T4 construct: incubated with human liver microsomes; from tissue; host or cells: human liver microsomes
T4 sequence (P33261 whole entry): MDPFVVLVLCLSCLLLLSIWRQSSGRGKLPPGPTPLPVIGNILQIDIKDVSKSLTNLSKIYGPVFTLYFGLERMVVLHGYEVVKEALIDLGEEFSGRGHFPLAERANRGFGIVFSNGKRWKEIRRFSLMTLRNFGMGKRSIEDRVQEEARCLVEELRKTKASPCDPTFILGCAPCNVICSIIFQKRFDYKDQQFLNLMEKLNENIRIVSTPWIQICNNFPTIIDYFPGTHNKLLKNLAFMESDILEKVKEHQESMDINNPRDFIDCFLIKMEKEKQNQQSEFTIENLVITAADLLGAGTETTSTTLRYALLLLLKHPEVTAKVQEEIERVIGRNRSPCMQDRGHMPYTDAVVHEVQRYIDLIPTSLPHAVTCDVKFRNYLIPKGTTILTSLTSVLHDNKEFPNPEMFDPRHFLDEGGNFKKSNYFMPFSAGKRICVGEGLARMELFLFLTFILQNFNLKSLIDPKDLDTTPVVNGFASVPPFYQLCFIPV

CYP2C8 = biological target: T5, CYP2C8 (Homo sapiens, UniProt P10632); experiment: CYP inhibition in human liver microsomes, CYP2C8; settings: probe paclitaxel and amodiaquine, substrates paclitaxel and amodiaquine, read-out: CYP2C8 Inh %
T5 construct: incubated with human liver microsomes; from tissue; host or cells: human liver microsomes
T5 sequence (P10632 1-490): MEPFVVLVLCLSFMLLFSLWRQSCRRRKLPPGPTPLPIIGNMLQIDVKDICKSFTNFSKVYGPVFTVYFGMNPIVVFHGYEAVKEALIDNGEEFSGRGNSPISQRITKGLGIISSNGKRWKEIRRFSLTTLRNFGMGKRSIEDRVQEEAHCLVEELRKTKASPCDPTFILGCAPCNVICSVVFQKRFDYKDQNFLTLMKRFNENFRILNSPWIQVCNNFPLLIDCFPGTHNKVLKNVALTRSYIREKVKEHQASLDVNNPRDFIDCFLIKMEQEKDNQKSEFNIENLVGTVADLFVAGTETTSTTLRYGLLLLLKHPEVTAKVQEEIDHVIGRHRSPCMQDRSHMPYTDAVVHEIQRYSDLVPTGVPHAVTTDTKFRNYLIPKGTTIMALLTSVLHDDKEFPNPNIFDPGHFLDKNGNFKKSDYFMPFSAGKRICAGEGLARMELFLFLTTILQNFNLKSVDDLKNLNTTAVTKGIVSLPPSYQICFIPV

[1] = Metabolic stability in pooled human liver microsomes; settings: human liver microsomes 0.5 mg/mL, 1 μM compound, 37° C.
CYP3A4 = CYP3A4 (Homo sapiens, UniProt P08684); experiment: CYP inhibition in human liver microsomes, CYP3A4 midazolam; design: incubated with human liver microsomes; from tissue; host or cells: human liver microsomes; settings: probe midazolam, substrate midazolam, read-out: CYP3A4 midazolam Inh %
CYP3A4, sequence (P08684 whole entry): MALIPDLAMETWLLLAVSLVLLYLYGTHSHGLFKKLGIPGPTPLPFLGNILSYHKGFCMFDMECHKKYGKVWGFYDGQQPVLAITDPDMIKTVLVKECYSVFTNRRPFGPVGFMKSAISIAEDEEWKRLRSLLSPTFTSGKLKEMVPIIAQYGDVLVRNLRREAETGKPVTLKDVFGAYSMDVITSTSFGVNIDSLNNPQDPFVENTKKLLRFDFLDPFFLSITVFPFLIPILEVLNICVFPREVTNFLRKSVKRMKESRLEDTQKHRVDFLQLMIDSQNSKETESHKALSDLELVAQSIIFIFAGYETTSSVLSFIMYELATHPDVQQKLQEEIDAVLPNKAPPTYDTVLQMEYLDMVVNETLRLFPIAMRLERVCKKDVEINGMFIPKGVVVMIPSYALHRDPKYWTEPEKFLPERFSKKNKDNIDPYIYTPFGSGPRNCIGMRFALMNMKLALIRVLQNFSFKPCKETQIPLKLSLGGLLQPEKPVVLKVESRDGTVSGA

[2] = with 1 mM NADPH, read-out: T1/2, + NaDPH
[3] = without NADPH, read-out: T1/2, no NaDPH

T1 sequence (P05177 whole entry): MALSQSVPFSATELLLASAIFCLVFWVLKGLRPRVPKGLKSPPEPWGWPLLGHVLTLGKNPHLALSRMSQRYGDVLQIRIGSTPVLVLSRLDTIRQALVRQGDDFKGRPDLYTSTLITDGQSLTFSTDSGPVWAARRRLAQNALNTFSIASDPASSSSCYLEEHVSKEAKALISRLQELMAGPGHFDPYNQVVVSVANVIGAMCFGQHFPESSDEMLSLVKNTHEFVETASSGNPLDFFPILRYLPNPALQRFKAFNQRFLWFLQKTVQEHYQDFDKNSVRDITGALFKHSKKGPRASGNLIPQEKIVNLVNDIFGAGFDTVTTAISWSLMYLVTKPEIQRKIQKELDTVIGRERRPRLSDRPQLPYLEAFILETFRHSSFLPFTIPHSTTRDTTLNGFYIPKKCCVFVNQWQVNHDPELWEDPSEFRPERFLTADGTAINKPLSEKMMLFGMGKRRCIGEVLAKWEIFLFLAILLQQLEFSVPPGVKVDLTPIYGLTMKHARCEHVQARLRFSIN

Row | inhibition at 10 µM (CYP1A) | inhibition at 10 µM (CYP3A4&5) | inhibition at 10 µM (CYP2C9) | inhibition at 10 µM (CYP2D6) | inhibition at 10 µM (CYP2B6) | inhibition at 10 µM (CYP2C19) | inhibition at 10 µM (CYP2C8) | half-life at 1 μM [1, 2] | half-life at 1 μM [1, 3] | inhibition at 10 µM (CYP3A4) | SMILES
1 | 4.3% | 30.5% | 81.3% | 0.3% | 35% | 59.3% | 61.3% | 26 min | 26 min | 5.6% | CCCCOC(=O)NS(=O)(=O)c1ccc(CC(C)C)cc1-c1ccc(Cn2ccnc2CC)c(F)c1 [Example 11, Butyl ((4′-((2-ethyl-1H-imidazol-1-yl)methyl)-3′-fluoro-5-isobutyl-[1,1′-biphenyl]-2-yl)sulfonyl)carbamate]
2 | -13.1% | 15.1% | 72% | 17.7% | 26.2% | 34.4% | 87.9% | > 60 min | > 60 min | 3.8% | COC(=O)NS(=O)(=O)c1ccc(CC(C)C)cc1-c1ccc(Cn2ccnc2C(C)(C)C)c(F)c1 [Example 5, Methyl ((4′-((2-(tert-butyl)-1H-imidazol-1-yl)methyl)-3′-fluoro-5-isobutyl-[1,1′-biphenyl]-2-yl)sulfonyl)carbamate]
3 | 9.4% | 21.9% | 68% | 0.1% | 20.6% | 40.9% | 57.6% | 43 min | 46 min | -4.2% | CCOC(=O)NS(=O)(=O)c1ccc(CC(C)C)cc1-c1ccc(Cn2ccnc2CC)c(F)c1 [Example 14, Ethyl ((4′-((2-ethyl-1H-imidazol-1-yl)methyl)-3′-fluoro-5-isobutyl-[1,1′-biphenyl]-2-yl)sulfonyl)carbamate]
4 | 3.2% | 24.5% | 68.6% | -12.9% | 31.8% | 54.9% | 46.9% | 32 min | 35 min | 11.5% | CCCCOC(=O)NS(=O)(=O)c1ccc(CC(C)C)cc1-c1ccc(Cn2ccnc2C)c(F)c1 [Example 10, Butyl ((3′-fluoro-5-isobutyl-4′-((2-methyl-1H-imidazol-1-yl)methyl)-[1,1′-biphenyl]-2-yl)sulfonyl)carbamate]
5 | 10.4% | 19.4% | 50% | 1.2% | 32% | 33.7% | 76.7% | 36 min | 35 min | -4.7% | CCOC(=O)NS(=O)(=O)c1ccc(CC(C)C)cc1-c1ccc(Cn2ccnc2C(C)C)c(F)c1 [Example 8, Ethyl ((3′-fluoro-5-isobutyl-4′-((2-isopropyl-1H-imidazol-1-yl)methyl)-[1,1′-biphenyl]-2-yl)sulfonyl)carbamate]
6 | 7% | 18.4% | 59.6% | 2.2% | 16.1% | 21.5% | 52.4% | > 60 min | > 60 min | -5.3% | CCc1nccn1Cc1ccc(-c2cc(CC(C)C)ccc2S(=O)(=O)NC(=O)OC)cc1F [Example 15, Methyl ((4′-((2-ethyl-1H-imidazol-1-yl)methyl)-3′-fluoro-5-isobutyl-[1,1′-biphenyl]-2-yl)sulfonyl)carbamate]
7 | 7.6% | 14.5% | 32.3% | -0.8% | 18.4% | 24.6% | 27.7% | > 60 min | > 60 min | 9.3% | COC(=O)NS(=O)(=O)c1ccc(CC(C)C)cc1-c1ccc(Cn2ccnc2C)c(F)c1 [Example 13, Methyl ((3′-fluoro-5-isobutyl-4′-((2-methyl-1H-imidazol-1-yl)methyl)-[1,1′-biphenyl]-2-yl)sulfonyl)carbamate]
8 | 6.3% | 29.7% | 80.7% | -4.1% | 52.2% | 59.3% | 73.9% | 18 min | 20 min | 9.7% | CCCCOC(=O)NS(=O)(=O)c1ccc(CC(C)C)cc1-c1ccc(Cn2ccnc2C(C)C)c(F)c1 [Example 7, Butyl ((3′-fluoro-5-isobutyl-4′-((2-isopropyl-1H-imidazol-1-yl)methyl)-[1,1′-biphenyl]-2-yl)sulfonyl)carbamate]
9 | 5.9% | 12.6% | 52.6% | 2.9% | 18.9% | 50.7% | 39.7% | > 60 min | 50 min | 8.6% | CCOC(=O)NS(=O)(=O)c1ccc(CC(C)C)cc1-c1ccc(Cn2ccnc2C)c(F)c1 [Example 12, Ethyl ((3′-fluoro-5-isobutyl-4′-((2-methyl-1H-imidazol-1-yl)methyl)-[1,1′-biphenyl]-2-yl)sulfonyl)carbamate]
10 | 8.6% | 31% | 72.2% | 33.1% | 26.4% | 49.3% | 53% | 12 min | 14 min | 19.9% | CCOC(=O)NS(=O)(=O)c1ccc(CC(C)C)cc1-c1ccc(Cn2ccnc2C(C)(C)C)c(F)c1 [Example 6, Ethyl ((4′-((2-(tert-butyl)-1H-imidazol-1-yl)methyl)-3′-fluoro-5-isobutyl-[1,1′-biphenyl]-2-yl)sulfonyl)carbamate]
11 | 2.5% | 17.5% | 37.9% | -2.4% | 28.2% | 27.2% | 77.2% | > 60 min | > 60 min | -4.9% | COC(=O)NS(=O)(=O)c1ccc(CC(C)C)cc1-c1ccc(Cn2ccnc2C(C)C)c(F)c1 [Example 9, Methyl ((3′-fluoro-5-isobutyl-4′-((2-isopropyl-1H-imidazol-1-yl)methyl)-[1,1′-biphenyl]-2-yl)sulfonyl)carbamate]
12 |  |  |  |  |  |  |  | > 60 min | > 60 min |  | CC(C)Cc1ccc(S(=O)(=O)NC(=O)OCCO)c(-c2ccc(Cn3ccnc3C(C)(C)C)cc2)c1 [Example 16, 2-Hydroxyethyl (4′-((2-(tert-butyl)-1H-imidazol-1-yl)methyl)-5-isobutyl-[1,1′-biphenyl]-2-yl)sulfonylcarbamate]

Reference: patent US20240182461A1, “SELECTIVE ANGIOTENSIN II RECEPTOR LIGANDS” (priority 2021, published 2024)
